Measured values reported in patent publication US20120100989A1, “3-Aryl-4-(2-thienylmethylene)isoxazol-5(4H)-ones as Fungicides” (Bayer CropScience AG, priority 2010, published 2012).

Tests used:
[1] = log P by HPLC on reversed-phase columns (C 18), EEC directive 79/831 Annex V.A8; type: physicochemical; details: for log P: pH 2.7; for chromatographic logP: reversed-phase C18 HPLC column, preparation examples, HPLC, acidic range pH 2.7, formic acid, read-out: log P (HCOOH)
Description: The log P values were measured according to EEC directive 79/831 Annex V.A8 by HPLC (High Performance Liquid Chromatography) on reversed-phase columns (C 18), using the method below:
The determination was carried out in the acidic range at pH 2.7 using the mobile phases 0.1% aqueous formic acid and acetonitrile; linear gradient from 10% acetonitrile to 95% acetonitrile.

[2] = test system: caterpillars of the armyworm (Spodoptera frugiperda); assay: Spodoptera frugiperda test (spray treatment); type: in vivo; details: maize leaf discs, application rate 500 g/ha
Description: Example J Spodoptera Frugiperda Test (Spray Treatment) [table] To produce a suitable preparation of active compound, 1 part by weight of active compound is mixed with the stated amounts of solvent and emulsifier, and the concentrate is diluted with emulsifier-containing water to the desired concentration. Discs of maize leaves (Zea mays) are sprayed with an active compound preparation of the desired concentration and, after drying, populated with caterpillars of the armyworm (Spodoptera frugiperda). After the desired period of time, the effect in % is determined. 100% means that all caterpillars have been killed; 0% means that none of the caterpillars have been killed.

SMILES | log P [1] | chromatographic logP [1] | activity (caterpillars killed) [2] [%]
COc1cc(OC)cc(C2=NOC(=O)C2=Cc2cccs2)c1 [U-21] | 3.20 |  | 
COCc1ccsc1C=C1C(=O)ON=C1c1ccccc1Cl [I-20] | 3.20 |  | 
COc1ccc(C2=NOC(=O)C2=Cc2cccs2)cc1OC [U-19] | 3.01 |  | 
COc1cccc(OC)c1C1=NOC(=O)C1=Cc1cccs1 [U-22] | 2.79 |  | 
COc1ccc(F)cc1C1=NOC(=O)C1=Cc1cccs1 [U-31] | 3.06 |  | 
Cc1ccsc1C=C1C(=O)ON=C1c1cc(F)ccc1Cl [I-130] | 3.55 |  | 
Cc1cccc(C2=NOC(=O)C2=Cc2cccs2)c1 [I-80] | 3.36 |  | 
COc1cccc(C2=NOC(=O)C2=Cc2sccc2C)c1 [U-13] | 3.24 |  | 
Cc1ccc(C=C2C(=O)ON=C2c2ccccc2OCc2ccccc2)s1 [I-115] | 3.98 |  | 
O=C1ON=C(c2ccccc2)C1=Cc1cccs1 [U-1] |  |  | 80
O=C1ON=C(c2ccccc2[N+](=O)[O-])C1=Cc1cccs1 [I-120] | 2.69 |  | 
COc1cccc(C2=NOC(=O)C2)c1 [3-(3-methoxyphenyl)isoxazol-5(4H)-one] |  | 4.03 | 
COc1ccc(C2=NOC(=O)C2=Cc2cccs2)c(OC)c1 [U-28] | 2.68 |  | 
CSCc1sc(C=C2C(=O)ON=C2c2ccccc2Cl)cc1Br [I-13] | 4.29 |  | 
O=C1ON=C(c2cc(F)ccc2F)C1=Cc1ccc(Cl)s1 [I-139] | 3.84 |  | 
O=C1ON=C(c2ccccc2)C1=Cc1sccc1Br [I-109] | 3.69 |  | 
Cc1ccc(C=C2C(=O)ON=C2c2c(F)cccc2F)s1 [I-78] | 3.25 |  | 
O=C1ON=C(c2ccccc2OCc2ccccc2)C1=Cc1cccs1 [I-117] | 3.74 |  | 

SMILES | log P [1] | chromatographic logP [1] | activity (caterpillars killed) [2] [%]
Cc1c(C=C2C(=O)ON=C2c2cc(F)ccc2Cl)sc2ccccc12 [I-146] | 4.32 |  | 
O=C1ON=C(c2cc(F)ccc2Cl)C1=Cc1cc(Br)cs1 [I-137] | 3.95 |  | 
O=C1ON=C(c2cccc([N+](=O)[O-])c2)C1=Cc1cccs1 [I-24] | 2.94 |  | 
O=C1ON=C(c2ccccc2Cl)C1=Cc1ccc(-c2ccccc2)s1 [I-15] | 4.42 |  | 
O=C1ON=C(c2cc(Br)ccc2Br)C1=Cc1cccs1 [I-122] | 3.88 |  | 
Cc1ccc(C)c(C2=NOC(=O)C2=Cc2sccc2C)c1 [I-124] | 3.81 |  | 
O=C1ON=C(c2ccccc2)C1=Cc1cccs1 [U-33] | 2.91 |  | 
Cc1ccc(C2=NOC(=O)C2=Cc2sccc2C)c(C)c1 [I-97] | 3.85 |  | 
O=C1ON=C(c2c(F)cccc2F)C1=Cc1cccs1 [I-59] | 2.97 |  | 
O=C1ON=C(c2ccccc2Cl)C1=Cc1cc(Br)cs1 [I-11] | 3.92 |  | 
O=C1ON=C(c2c(F)cccc2F)C1=Cc1cc(Br)cs1 [I-77] | 3.69 |  | 
COc1ccc(C2=NOC(=O)C2=Cc2sccc2C)c(OC)c1 [U-27] | 2.81 |  | 
Cc1ccsc1C=C1C(=O)ON=C1c1ccccc1 [U-29] | 3.18 |  | 
Cc1sc(C=C2C(=O)ON=C2c2ccccc2Cl)cc1Br [I-12] | 4.73 |  | 
Cc1ccc(C)c(C2=NOC(=O)C2=Cc2cccs2)c1 [I-98] | 3.62 |  | 
COc1cccc(C2=NOC(=O)C2=Cc2cc(-c3ccccc3)cs2)c1 [I-52] | 4.27 |  | 
O=C1ON=C(c2ccc(Cl)c(Cl)c2)C1=Cc1cccs1 [I-7] | 3.89 |  | 

Second part, led by results:

log P [1] | chromatographic logP [1] | SMILES | activity (caterpillars killed) [2] [%]
3.34 |  | COc1cccc(C2=NOC(=O)C2=Cc2ccc(C)s2)c1 [U-12] | 80
3.70 |  | COc1ccc(C2=NOC(=O)C2=Cc2ccc(Cl)s2)cc1 [I-43] | 80
3.44 |  | O=C1ON=C(c2ccc(Cl)cc2)C1=Cc1cccs1 [I-5] | 80
3.73 |  | CC(C)Oc1ccc(C2=NOC(=O)C2=Cc2cccs2)cc1 [I-79] | 80
3.32 |  | Cc1ccc(C2=NOC(=O)C2=Cc2cccs2)cc1 [U-2] | 80
3.26 |  | Cc1ccsc1C=C1C(=O)ON=C1c1ccc(F)cc1 [I-32] | 80
3.28 |  | COc1ccc(C2=NOC(=O)C2=Cc2ccc(C)s2)cc1 [U-9] | 80
3.34 |  | Cc1ccc(C=C2C(=O)ON=C2c2ccc(F)cc2)s1 [I-33] | 80
3.27 |  | O=C1ON=C(c2ccccc2)/C1=C/c1ccc([N+](=O)[O-])s1 [U-41] | 
3.44 |  | Cc1ccc(C=C2C(=O)ON=C2c2ccccc2Cl)s1 [I-19] | 
4.12 |  | Cc1ccc(C2=NOC(=O)C2=Cc2ccc(Br)s2)cc1 [I-48] | 
3.94 |  | O=C1ON=C(c2ccccc2Cl)C1=Cc1ccc(Br)s1 [I-103] | 
3.90 |  | O=C1ON=C(c2ccccc2Cl)C1=Cc1ccc(Cl)s1 [I-9] | 
4.21 |  | O=C1ON=C(c2ccc(Cl)cc2)C1=Cc1ccc(Br)s1 [I-50] | 
4.48 |  | O=C1ON=C(c2ccccc2OCc2ccccc2)C1=Cc1ccc(Br)s1 [I-113] | 
 | 4.7 | Cc1ccc(/C=C2\C(=O)ON=C2c2ccc(C(C)(C)C)cc2)s1 [I-27, 3-(4-tert-butylphenyl)-4-(2-(5-methylthienyl)methylene)isoxazol-5(4H)-one] | 
5.13 |  | CC(C)(C)c1ccc(C2=NOC(=O)C2=Cc2ccc(Br)s2)cc1 [I-93] | 
4.52 |  | CC(C)(C)c1ccc(C2=NOC(=O)C2=Cc2ccc([N+](=O)[O-])s2)cc1 [I-53] | 
4.19 |  | O=C1ON=C(c2ccc(Cl)cc2)C1=Cc1cc(Br)cs1 [I-31] | 

log P [1] | chromatographic logP [1] | SMILES | activity (caterpillars killed) [2] [%]
3.76 |  | O=C1ON=C(c2ccccc2)C1=Cc1ccc(Cl)s1 [I-105] | 
 | 3.74 | COc1cccc(C2=NOC(=O)/C2=C\c2ccc(Cl)s2)c1 [I-37, 3-(3-methoxyphenyl)-4-(2-(5-chlorothienyl)methylene)isoxazol-5(4H)-one] | 
4.20 |  | CCOc1ccc(C2=NOC(=O)C2=Cc2ccc(Br)s2)cc1 [I-83] | 
3.73 |  | O=C1ON=C(c2c(F)cccc2F)C1=Cc1ccc(Br)s1 [I-72] | 
6.31 |  | COc1ccc(C2=NOC(=O)C2=Cc2ccc([N+](=O)[O-])s2)cc1 [U-17] | 
3.79 |  | Cc1ccc(C=C2C(=O)ON=C2c2ccc(Cl)cc2)s1 [I-25] | 
3.72 |  | O=C1ON=C(c2ccc(F)cc2)C1=Cc1ccc(Cl)s1 [I-41] | 
4.03 |  | CCOc1ccccc1C1=NOC(=O)C1=Cc1ccc(Br)s1 [I-118] | 
4.51 |  | Cc1ccc(C2=NOC(=O)C2=Cc2sc3ccccc3c2C)cc1 [I-142] | 
4.02 |  | Cc1ccc(C=C2C(=O)ON=C2c2cc(Br)ccc2Cl)s1 [I-131] | 
4.09 |  | Cc1ccc(C2=NOC(=O)C2=Cc2cc(Br)cs2)cc1 [U-7] | 
3.70 |  | CCOc1ccc(C2=NOC(=O)C2=Cc2ccc(C)s2)cc1 [I-81] | 
4.84 |  | Cc1ccc(C2=NOC(=O)C2=Cc2cc(Br)c(Br)s2)cc1 [I-64] | 
3.78 |  | O=C1ON=C(c2ccc(F)cc2)C1=Cc1ccc(Br)s1 [I-47] | 
3.87 |  | CCc1sc(C=C2C(=O)ON=C2c2ccccc2Cl)cc1Br [I-10] | 
2.90 |  | COc1cccc(C2=NOC(=O)C2=Cc2cccs2)c1 [U-6] | 
3.74 |  | O=C1ON=C(c2ccc(F)cc2)C1=Cc1sccc1Br [I-60] | 
3.77 |  | COc1ccc(C2=NOC(=O)C2=Cc2ccc(Br)s2)cc1 [I-49] | 
